In patent US20100184684A1, “ANTIBACTERIAL AND ANTIFUNGAL PEPTIDES” (C3 JIAN, INC., priority 2009, published 2010):
≈ marks a conversion by molar mass, not a printed value. Read-outs that look alike come from different tables or passages of the source. Peptide text beside a SMILES is read from it.

Legend:
[1] = test system: C. jeikeium; type: cell-based, Corynebacterium jeikium
Procedure: (§1) In certain embodiments the MIC assays are performed as described herein in the Examples. For each organism, the media and growth conditions utilized is detailed in Table 8.
(§2) In certain embodiments the MIC assays are performed as follows: For each organism, the media and growth conditions utilized is detailed in Table 8.

[2] = test system: P. aeruginosa; type: cell-based, Pseudomonas aeruginosa
Procedure: as §1, §2

[3] = test system: S. epidermidis; type: cell-based
Procedure: as §1, §2

[4] = test system: A. niger; type: cell-based, Aspergillus niger
Procedure: as §1, §2

[5] = test system: T. rubrum; type: cell-based, Trichophyton rubrum
Procedure: as §1, §2

[6] = test system: B. subtilis; type: cell-based, Bacillus subtilis
Procedure: as §1, §2

[7] = test system: C. difficile; type: cell-based, Clostridium difficile
Procedure: as §1, §2

[8] = test system: S. mutans; type: cell-based, Streptococcus mutans
Procedure: as §1, §2

[9] = test system: A. baumannii; type: cell-based, Acinetobacter baumannii
Procedure: as §1, §2

[10] = test system: P. gingivalis; type: cell-based, Porphyromonas gingivalis
Procedure: as §1, §2

[11] = test system: A. naeslundii; type: cell-based, Actinomyces naeslundii
Procedure: as §1, §2

[12] = test system: F. nucleatum; type: cell-based, Fusobacterium nucleatum
Procedure: as §1, §2

[13] = test system: M. furfur; assay: MIC assay; type: cell-based, Malassezia furfur; conditions: ATCC medium 1072, 37° C., aerobic, 10^5 CFU/ml
Procedure: as §1, §2

[14] = test system: MRSA; type: cell-based, Staphylococcus aureus; conditions: MRSA; BHI supplemented with 2% glucose, 37° C., aerobic, 10^5 CFU/ml
Procedure: as §1, §2

| MIC [1] [µM] | MIC [2] [µM] | MIC [3] [µM] | MIC [4] [µM] | MIC [5] [µM] | MIC [6] [µM] | MIC [7] [µM] | MIC [8] [µM] | MIC [9] [µM] | MIC [10] [µM] | MIC [11] [µM] | MIC [12] [µM] | SMILES | MIC ([2]; P. aeruginosa, MH, 37° C., aerobic, 10^5 CFU/ml) [µM] | MIC ([3]; S. epidermidis, BHI supplemented with 0.25% glucose, 37° C., aerobic, 10^5 CFU/ml) [µM] | MIC ([5]; T. rubrum, Potato Dextrose Agar, 25° C., aerobic, 10^5 CFU/ml) [µM] | MIC [13] [µM] | MIC ([10]; P. gingivalis, Columbia broth, 37° C., anaerobic, 10^5 CFU/ml) [µM] | MIC [14] [µM] | MIC ([8]; S. mutans, TH supplemented with 1% sucrose, 37° C., anaerobic, 10^5 CFU/ml) [µM] |
| --- | --- | --- | --- | --- | --- | --- | --- | --- | --- | --- | --- | --- | --- | --- | --- | --- | --- | --- | --- |
| 6.25 (≈ 16.5 µg/mL) | 50 (≈ 132 µg/mL) | 50 (≈ 132 µg/mL) | 25 (≈ 66 µg/mL) | 50 (≈ 132 µg/mL) | 25 (≈ 66 µg/mL) | 12.5 (≈ 33 µg/mL) | 12.5 (≈ 33 µg/mL) | 25 (≈ 66 µg/mL) | – | – | – | CC[C@H](C)[C@H](NC(=O)[C@H](CCCCN)NC(=O)[C@@H](NC(=O)[C@H](CCCCN)NC(=O)[C@H](CCCCN)NC(=O)[C@@H](NC(=O)[C@H](CCCCN)NC(=O)[C@@H]1CCCN1C(=O)[C@H](CCCNC(=N)N)NC(=O)[C@@H]1CCCN1C(=O)[C@H](CCC(N)=O)NC(=O)[C@H](CCC(N)=O)NC(=O)[C@H](CC(N)=O)NC(=O)[C@H](CC(C)C)NC(=O)[C@H](Cc1c[nH]cn1)NC(=O)[C@H](Cc1ccccc1)NC(=O)[C@H](CCC(N)=O)NC(=O)[C@@H](NC(=O)[C@@H](N)Cc1ccc(O)cc1)[C@@H](C)CC)C(C)C)[C@@H](C)CC)C(=O)N[C@@H](Cc1ccccc1)C(=O)N[C@@H](CC(C)C)C(=O)O [PF-531] (H-YIQFHLNQQPRPKVKKIKIFL-OH; N-terminus and C-terminus assumed) | – | – | – | – | – | – | – |
| – | – | – | – | – | – | – | 50 (≈ 118 µg/mL) | – | 50 (≈ 118 µg/mL) | 25 (≈ 59 µg/mL) | 50 (≈ 118 µg/mL) | CC[C@H](C)[C@H](NC(=O)[C@H](CCC(N)=O)NC(=O)[C@H](CCCCN)NC(=O)[C@H](CC(C)C)NC(=O)[C@H](CC(C)C)NC(=O)[C@@H]1CCCN1C(=O)[C@H](CCSC)NC(=O)[C@H](CC(C)C)NC(=O)[C@H](CO)NC(=O)[C@H](CCCCN)NC(=O)CNC(=O)[C@@H](N)CCCCN)C(=O)N[C@@H](CC(N)=O)C(=O)N[C@@H](CCC(N)=O)C(=O)N[C@@H](Cc1c[nH]c2ccccc12)C(=O)NCC(=O)N[C@@H](CCCCN)C(=O)N[C@@H](CC(C)C)C(=O)N[C@@H](Cc1ccc(O)cc1)C(=O)N[C@@H](CC(C)C)C(=O)O [PF-C239] (H-KGKSLMPLLKQINQWGKLYL-OH; N-terminus and C-terminus assumed) | – | – | – | – | – | – | – |
| – | – | – | – | – | – | – | – | – | – | – | – | CC[C@H](C)[C@H](NC(=O)[C@@H](NC(=O)[C@H](CO)NC(=O)CN)C(C)C)C(=O)N[C@@H](CCCCN)C(=O)N[C@@H](CCCCN)C(=O)N[C@@H](CCCNC(=N)N)C(=O)N[C@@H](CCCNC(=N)N)C(=O)N[C@@H](CCCCN)C(=O)N[C@@H](CCCNC(=N)N)C(=O)N[C@@H](CCSC)C(=O)N[C@@H](CO)C(=O)N[C@@H](CCCCN)C(=O)N[C@@H](CCCCN)C(=O)N[C@@H](CCCCN)C(=O)N[C@@H](Cc1c[nH]cn1)C(=O)N[C@@H](CCCNC(=N)N)C(=O)N[C@@H](CCCCN)C(=O)N[C@@H](CCSC)C(=O)N[C@@H](CC(C)C)C(=O)N[C@@H](CCCNC(=N)N)C(=O)N[C@@H](CCCNC(=N)N)C(=O)N[C@H](C(=O)N[C@@H](CCCNC(=N)N)C(=O)N[C@H](C(=O)N[C@@H](CCC(N)=O)C(=O)N[C@@H](CCCNC(=N)N)C(=O)N[C@@H](CCCNC(=N)N)C(=O)N[C@@H](CCCCN)C(=O)N[C@@H](CC(C)C)C(=O)NCC(=O)N[C@@H](CCCCN)C(=O)O)C(C)C)[C@@H](C)O [PF-S028] | 50 (≈ 202 µg/mL) | 25 (≈ 101 µg/mL) | 50 (≈ 202 µg/mL) | 2.5 (≈ 10.1 µg/mL) | 25 (≈ 101 µg/mL) | 50 (≈ 202 µg/mL) | 50 (≈ 202 µg/mL) |
